According to PMC8253220, “Molecular design, synthesis and in vitro biological evaluation of thienopyrimidine–hydroxamic acids as chimeric kinase HDAC inhibitors: a challenging approach to combat cancer” (Journal of Enzyme Inhibition and Medicinal Chemistry, 2021):
Where “and” joins values, the source holds several entries; their conditions need not be identical. Identical values can stand only once.

Tests used:
Experiment in all cases: NCI one-dose screen
Assay type in all cases: cell-based, human
[1] = system: MOLT-4; details: Leukemia MOLT-4, 10 µM single dose
How it was run: (§1)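 At 10 μM, a single concentration, compounds were evaluated for antiproliferative effect in the NCI 60-line screen, with growth expressed relative to untreated control cells.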

[2] = system: SK-MEL-2; details: Melanoma SK-MEL-2, 10 µM single dose
How it was run: (§2)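 In vitro antiproliferative testing: NCI-60 panel, initial single dose 10 μM, inhibition % derived from percent growth of treated versus untreated control cells.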

[3] = system: SF-268; details: CNS SF-268, 10 µM single dose
How it was run: as §1

[4] = system: 786-0; details: Renal 786-0, 10 µM single dose
How it was run: (§3)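 One concentration (10 μM) applied to each line of the full NCI-60 panel; percent growth compared against untreated cells.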

[5] = system: DU-145; details: Prostate DU-145, 10 µM single dose
How it was run: as §3

[6] = system: UACC-257; details: Melanoma UACC-257, 10 µM single dose
How it was run: (§4)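 Compounds were tested at a single dose of 10 μM across the full NCI-60 cell line panel. Growth was expressed as percent growth relative to untreated control cells, reported as percent inhibition.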

[7] = system: TK-10; details: Renal TK-10, 10 µM single dose
How it was run: as §3

[8] = system: MDA-MB-231/ATCC; details: Breast MDA-MB-231/ATCC, 10 µM single dose
How it was run: as §3

[9] = system: SF-295; details: CNS SF-295, 10 µM single dose
How it was run: as §3

[10] = system: KM12; details: Colon KM12, 10 µM single dose
How it was run: as §1

[11] = system: SK-OV-3; details: Ovarian SK-OV-3, 10 µM single dose
How it was run: as §3

[12] = system: LOX IMVI; details: Melanoma LOX IMVI, 10 µM single dose
How it was run: as §3

[13] = system: IGROV1; details: Ovarian IGROV1, 10 µM single dose
How it was run: as §3

[14] = system: HS 578T; details: Breast HS 578T, 10 µM single dose
How it was run: as §3

[15] = system: COLO 205; details: Colon COLO 205, 10 µM single dose
How it was run: as §3

[16] = system: A549/ATCC; details: NSCLC A549/ATCC, 10 µM single dose
How it was run: as §3

[17] = system: RXF 393; details: Renal RXF 393, 10 µM single dose
How it was run: as §3

[18] = system: NCI-H522; details: NSCLC NCI-H522, 10 µM single dose
How it was run: (§5)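 Following the standard NCI-60 protocol, compounds were applied once at 10 μM to all 60 cancer lines. Read-out is percent growth versus untreated controls, expressed as inhibition %.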

[19] = system: SR; details: Leukemia SR, 10 µM single dose
How it was run: as §3

[20] = system: SNB-19; details: CNS SNB-19, 10 µM single dose
How it was run: as §2

[21] = system: MCF7; details: Breast MCF7, 10 µM single dose
How it was run: as §1

[22] = system: RPMI-8226; details: Leukemia RPMI-8226, 10 µM single dose
How it was run: as §3

[23] = system: SW-620; details: Colon SW-620, 10 µM single dose
How it was run: as §4

[24] = system: OVCAR-3; details: Ovarian OVCAR-3, 10 µM single dose
How it was run: as §3

[25] = system: HCC-2998; details: Colon HCC-2998, 10 µM single dose
How it was run: as §3

[26] = system: UACC-62; details: Melanoma UACC-62, 10 µM single dose
How it was run: as §3

[27] = system: MALME-3M; details: Melanoma MALME-3M, 10 µM single dose
How it was run: as §3

[28] = system: T-47D; details: Breast T-47D, 10 µM single dose
How it was run: as §3

[29] = system: ACHN; details: Renal ACHN, 10 µM single dose
How it was run: as §3

[30] = system: SF-539; details: CNS SF-539, 10 µM single dose
How it was run: as §1

[31] = system: NCI-H226; details: NSCLC NCI-H226, 10 µM single dose
How it was run: as §5

[32] = system: HCT-116; details: Colon HCT-116, 10 µM single dose
How it was run: as §3

[33] = system: EKVX; details: NSCLC EKVX, 10 µM single dose
How it was run: as §5

[34] = system: CAKI-1; details: Renal CAKI-1, 10 µM single dose
How it was run: as §3

[35] = system: HOP-92; details: NSCLC HOP-92, 10 µM single dose
How it was run: as §3

[36] = system: M14; details: Melanoma M14, 10 µM single dose
How it was run: as §3

[37] = system: HOP-62; details: NSCLC HOP-62, 10 µM single dose
How it was run: as §2

Cc1c(C(=O)NCCC(=O)NO)sc2ncnc(Nc3ccc(NC(=O)Nc4ccccc4)cc3)c12 [Compound 11a, 1–(4-(6-((3-(hydroxyamino)-3-oxopropyl)carbamoyl)-5-methylthieno[2,3-d]pyrimidin-4-ylamino)phenyl)-3-phenylurea]
Growth Percent [1]: 110.5% and 110.52% | Growth Percent [2]: 107.0% and 107.07% | Growth Percent [3]: 96.8% and 96.85% | Growth Percent [4]: 98.2% and 98.21% | Growth Percent [5]: 110.81% | Growth Percent [6]: 101.0% and 101.08% | Growth Percent [7]: 97.6% and 97.69% | Growth Percent [8]: 97.6% and 97.67% | Growth Percent [9]: 95.2% and 95.29% | Growth Percent [10]: 103.2% and 103.23% | Growth Percent [11]: 123.7% and 123.79% | Growth Percent [12]: 95.3% and 95.38% | Growth Percent [13]: 103.0% and 103.03% | Growth Percent [14]: 99.6% and 99.62% | Growth Percent [15]: 113.5% and 113.57% | Growth Percent [16]: 97.7% and 97.77% | Growth Percent [17]: 107.3% and 107.33% | Growth Percent [18]: 92.8% | Growth Percent [19]: 108.7% and 108.77% | Growth Percent [20]: 97.5% and 97.59% | Growth Percent [21]: 92.3% | Growth Percent [22]: 109.4% | Growth Percent [23]: 103.0% and 103.02% | Growth Percent [24]: 102.6% and 102.61% | Growth Percent [25]: 98.0% and 98.02% | Growth Percent [26]: 98.7% and 98.79% | Growth Percent [27]: 103.6% and 103.62% | Growth Percent [28]: 107.7% and 107.73% | Growth Percent [29]: 101.6% and 101.68% | Growth Percent [30]: 90.3% and 90.31% | Growth Percent [31]: 90.4% and 90.42% | Growth Percent [32]: 102.9% and 102.94% | Growth Percent [33]: 94.6% and 94.62% | Growth Percent [34]: 94.5% and 94.51% | Growth Percent [35]: 106.7% and 106.72% | Growth Percent [36]: 99.1% and 99.16% | Growth Percent [37]: 102.3% and 102.39%

Cc1c(C(=O)NCCC(=O)NO)sc2ncnc(Nc3ccc(NC(=O)Nc4cccc(C(F)(F)F)c4)cc3)c12 [Compound 11c, 1–(4-(6-((3-(hydroxyamino)-3-oxopropyl)carbamoyl)-5-methylthieno[2,3-d]pyrimidin-4-ylamino)phenyl)-3–(3-(trifluoromethyl)phenyl)urea]
Growth Percent [1]: 105.7% and 105.79% | Growth Percent [2]: 108.7% and 108.73% | Growth Percent [3]: 93.3% and 93.37% | Growth Percent [4]: 115.6% and 115.64% | Growth Percent [5]: 105.3% and 105.34% | Growth Percent [6]: 108.3% and 108.33% | Growth Percent [7]: 140.4% and 140.42% | Growth Percent [8]: 105.2% and 105.25% | Growth Percent [9]: 91.8% and 91.82% | Growth Percent [10]: 100.1% and 100.15% | Growth Percent [11]: 115.3% and 115.32% | Growth Percent [12]: 94.5% and 94.53% | Growth Percent [13]: 102.2% and 102.29% | Growth Percent [14]: 93.51% | Growth Percent [15]: 112.9% | Growth Percent [16]: 103.7% and 103.74% | Growth Percent [17]: 103.8% and 103.88% | Growth Percent [18]: 94.3% and 94.36% | Growth Percent [19]: 101.0% and 101.07% | Growth Percent [20]: 93.6% and 93.62% | Growth Percent [21]: 89.2% and 89.23% | Growth Percent [22]: 102.2% and 102.26% | Growth Percent [23]: 104.3% and 104.35% | Growth Percent [24]: 111.6% | Growth Percent [25]: 111.5% and 111.56% | Growth Percent [26]: 99.6% and 99.62% | Growth Percent [27]: 112.1% and 112.11% | Growth Percent [28]: 101.4% and 101.45% | Growth Percent [29]: 101.7% and 101.74% | Growth Percent [30]: 78.9% and 78.96% | Growth Percent [31]: 97.9% | Growth Percent [32]: 107.9% and 107.91% | Growth Percent [33]: 90.7% and 90.76% | Growth Percent [34]: 99.3% and 99.31% | Growth Percent [35]: 115.4% | Growth Percent [36]: 107.0% and 107.01% | Growth Percent [37]: 101.7%
